Measured values published in patent publication US7279494B2, “Antimicrobial [3.1.0] bicyclohexylphenyl-oxazolidinone derivatives and analogues” (Pfizer Inc., priority 2003, dated 2007).
Values after ≈ are worked out from the molar mass of the structure shown.

What was measured:
Type in all cases: cell-based
S. aureus UC9213 = experiment: MIC by standard agar dilution, S. aureus UC9213; conditions: Staphylococcus aureus, UC9213, Mueller Hinton agar, incubated overnight at 35° C.
Excerpt: (§1) The in vitro activity of compounds of the subject invention may be assessed by standard testing procedures such as the determination of minimum inhibitory concentration (MIC) by agar dilution as described in “Approved Standard. Methods for Dilution Antimicrobial Susceptibility Tests for Bacteria that Grow Aerobically,” 3rd ed., published 1993 by the National Committee for Clinical Laboratory standards, Villanova, Pa., USA.
(§2) The in vitro MICs of test compounds may be determined by a standard agar dilution method. A stock drug solution of each analog is prepared in a preferred solvent, usually DMSO:H2O (1:3). Serial 2-fold dilutions of each sample are made using 1.0 mL aliquots of sterile distilled water. To each 1.0 mL aliquot of drug is added 9 mL of molten Mueller Hinton agar medium. The drug-supplemented agar is mixed, poured into 15×100 mm petri dishes, and allowed to solidify and dry prior to inoculation.
(§3) Vials of each of the test organisms are maintained frozen in the vapor phase of a liquid nitrogen freezer. Test cultures are grown overnight at 35° C. on the medium appropriate for the organism. Colonies are harvested with a sterile swab, and cell suspensions are prepared in Trypticase Soy broth (TSB) to equal the turbidity of a 0.5 McFarland standard. A 1:20 dilution of each suspension is made in TSB. The plates containing the drug supplemented agar are inoculated with a 0.001 mL drop of the cell suspension using a Steers replicator, yielding approximately 10^4 to 10^5 cells per spot. The plates are incubated overnight at 35° C.
(§4) Following incubation the Minimum Inhibitory Concentration (MIC μg/mL), the lowest concentration of drug that inhibits visible growth of the organism, is read and recorded.

S. pneumoniae UC9912 = experiment: MIC by standard agar dilution, S. pneumoniae UC9912; conditions: Streptococcus pneumoniae, UC9912, Mueller Hinton agar, incubated overnight at 35° C.
Excerpt: as §1, §2, §3, §4

H. influenzae 30063 = experiment: MIC by standard agar dilution, H. influenzae 30063; conditions: Haemophilus influenzae, 30063, agar dilution, Mueller Hinton agar, incubated overnight at 35° C.; read-out: H. influenzae 30063 MIC
Excerpt: as §1, §2, §3, §4

MIC (S. aureus UC9213) [mg/L]	MIC (S. pneumoniae UC9912) [mg/L]	MIC (H. influenzae 30063) [mg/L]	SMILES
2 (≈ 4.68 µM)	2 (≈ 4.68 µM)	8 (≈ 18.7 µM)	CC(=O)NC[C@H]1CN(c2ccc([C@H]3[C@@H]4CN(C(=O)c5cc[nH]n5)C[C@@H]43)c(F)c2)C(=O)O1 [Example 38, N-[((5S)-3-{3-fluoro-4-[exo-(1R,5S)-3-(1H-pyrazole-3-carbonyl)-3-azabicyclo[3.1.0]hex-6-yl]phenyl}-2-oxo-1,3-oxazolidin-5-yl)methyl]acetamide]
0.5 (≈ 1.17 µM)	1 (≈ 2.34 µM)	4 (≈ 9.36 µM)	CC(=O)NC[C@H]1CN(c2ccc([C@H]3[C@@H]4CN(C(=O)c5c[nH]cn5)C[C@@H]43)c(F)c2)C(=O)O1 [Example 39, N-[((5S)-3-{3-fluoro-4-[exo-(1R,5S)-3-(1H-imidazole-4-carbonyl)-3-azabicyclo[3.1.0]hex-6-yl]phenyl}-2-oxo-1,3-oxazolidin-5-yl)methyl]acetamide]
4 (≈ 9.36 µM)	2 (≈ 4.68 µM)	16 (≈ 37.4 µM)	CC(=O)NC[C@H]1CN(c2ccc([C@H]3[C@@H]4CN(C(=O)c5cn[nH]c5)C[C@@H]43)c(F)c2)C(=O)O1 [Example 40, N-[((5S)-3-{3-fluoro-4-[exo-(1R,5S)-3-(1H-pyrazole-4-carbonyl)-3-azabicyclo[3.1.0]hex-6-yl]phenyl}-2-oxo-1,3-oxazolidin-5-yl)methyl]acetamide]
4 (≈ 9.27 µM)	2 (≈ 4.64 µM)	32 (≈ 74.2 µM)	CC(=O)NC[C@H]1CN(c2ccc([C@H]3[C@@H]4CN(C(=O)[C@H]5CCCO5)C[C@@H]43)c(F)c2)C(=O)O1 [Example 41, N-[((5S)-3-{3-fluoro-4-[exo-(1R,5S)-3-(tetrahydrofuran-2-(R)-carbonyl)-3-azabicyclo[3.1.0]hex-6-yl]phenyl}-2-oxo-1,3-oxazolidin-5-yl)methyl]acetamide]
8 (≈ 18.5 µM)	4 (≈ 9.27 µM)	32 (≈ 74.2 µM)	CC(=O)NC[C@H]1CN(c2ccc([C@H]3[C@@H]4CN(C(=O)[C@@H]5CCCO5)C[C@@H]43)c(F)c2)C(=O)O1 [Example 42, N-[((5S)-3-{3-fluoro-4-[exo-(1R,5S)-3-(tetrahydrofaran-2-(S)-carbonyl)-3-azabicyclo[3.1.0]hex-6-yl]phenyl}-2-oxo-1,3-oxazolidin-5-yl)methyl]acetamide]
4 (≈ 9.72 µM)	1 (≈ 2.43 µM)	32 (≈ 77.8 µM)	CC(=O)NC[C@H]1CN(c2ccc([C@H]3[C@@H]4CN(c5ncccn5)C[C@@H]43)c(F)c2)C(=O)O1 [Example 43, N-[((5S)-3-{3-fluoro-4-[exo-(1R,5S)-3-(pyrimidin-2-yl)-3-azabicyclo[3.1.0]hex-6-yl]phenyl}-2-oxo-1,3-oxazolidin-5-yl)methyl]acetamide]
16 (≈ 39.9 µM)	32 (≈ 79.7 µM)	64 (≈ 159 µM)	CC(=O)NC[C@H]1CN(c2ccc([C@H]3[C@@H]4CN(c5nn[nH]n5)C[C@@H]43)c(F)c2)C(=O)O1 [Example 44, N-[((5S)-3-{3-fluoro-4-[exo-(1R,5S)-3-(2H-tetrazol-5-yl)-3-azabicyclo[3.1.0]hex-6-yl]phenyl}-2-oxo-1,3-oxazolidin-5-yl)methyl]acetamide]
8 (≈ 21.1 µM)	2 (≈ 5.27 µM)	16 (≈ 42.2 µM)	CC(=O)NC[C@H]1CN(c2ccc([C@H]3[C@@H]4CN(CCF)C[C@@H]43)c(F)c2)C(=O)O1 [Example 46, N-[((5S)-3-{3-fluoro-4-[exo-(1R,5S)-3-(2-fluoroethyl)-3-azabicyclo[3.1.0]hex-6-yl]phenyl}-2-oxo-1,3-oxazolidin-5-yl)methyl]acetamide]
4 (≈ 10.6 µM)	1 (≈ 2.65 µM)	8 (≈ 21.2 µM)	CC(=O)NC[C@H]1CN(c2ccc([C@H]3[C@@H]4CN(CCO)C[C@@H]43)c(F)c2)C(=O)O1 [Example 47, N-[((5S)-3-{3-fluoro-4-[exo-(1R,5S)-3-(2-hydroxyethyl)-3-azabicyclo[3.1.0]hex-6-yl]phenyl}-2-oxo-1,3-oxazolidin-5-yl)methyl]acetamide]
4 (≈ 10.4 µM)	1 (≈ 2.59 µM)	16 (≈ 41.4 µM)	CC(=O)NC[C@H]1CN(c2ccc([C@H]3[C@@H]4CN(CCC#N)C[C@@H]43)c(F)c2)C(=O)O1 [Example 48, N-[((5S)-3-{3-fluoro-4-[exo-(1R,5S)-3-(2-cyanoethyl)-3-azabicyclo[3.1.0]hex-6-yl]phenyl}-2-oxo-1,3-oxazolidin-5-yl)methyl]acetamide]
> 64	> 64	> 64	CC(=O)NC[C@H]1CN(c2ccc([C@H]3[C@@H]4CN(N(C)C)C[C@@H]43)c(F)c2)C(=O)O1 [Example 49, N-[((5S)-3-{3-fluoro-4-[exo-(1R,5S)-3-dimethylamino-3-azabicyclo[3.1.0]hex-6-yl]phenyl}-2-oxo-1,3-oxazolidin-5-yl)methyl]acetamide]
2 (≈ 5.26 µM)	1 (≈ 2.63 µM)	4 (≈ 10.5 µM)	CCC(=O)NC[C@H]1CN(c2ccc([C@H]3[C@@H]4C[S+]([O-])C[C@@H]43)c(F)c2)C(=O)O1 (stereo partly drawn) [Example 50, N-[((5S)-3-{3-fluoro-4-[exo-(1R,5S)-3-oxido-3-thiabicyclo[3.1.0]hex-6-yl]phenyl}-2-oxo-1,3-oxazolidin-5-yl)methyl]proyanamide]
2 (≈ 5.04 µM)	1 (≈ 2.52 µM)	8 (≈ 20.2 µM)	CCC(=O)NC[C@H]1CN(c2ccc([C@H]3[C@@H]4CS(=O)(=O)C[C@@H]43)c(F)c2)C(=O)O1 [Example 51, N-[((5S)-3-{4-[exo-(1R,5S)-3,3-dioxido-3-thiabicyclo[3.1.0]hex-6-yl]-3-fluorophenyl}-2-oxo-1,3-oxazolidin-5-yl)methyl]propanamide]
4 (≈ 10.2 µM)	1 (≈ 2.55 µM)	4 (≈ 10.2 µM)	O=C(NC[C@H]1CN(c2ccc([C@H]3[C@@H]4C[S+]([O-])C[C@@H]43)c(F)c2)C(=O)O1)C1CC1 (stereo partly drawn) [Example 52, N-[((5S)-3-{3-fluoro-4-[exo-(1R,5S)-3-oxido-3-thiabicyclo[3.1.0]hex-6-yl]phenyl}-2-oxo-1,3-oxazolidin-5-yl)methyl]cyclopropanecarboxamide]
4 (≈ 9.79 µM)	2 (≈ 4.9 µM)	4 (≈ 9.79 µM)	O=C(NC[C@H]1CN(c2ccc([C@H]3[C@@H]4CS(=O)(=O)C[C@@H]43)c(F)c2)C(=O)O1)C1CC1 [Example 53, N-[((5S)-3-{3-fluoro-4-[exo-(1R,5S)-3,3-dioxido-3-thiabicyclo[3.1.0]hex-6-yl]phenyl}-2-oxo-1,3-oxazolidin-5-yl)methyl]cyclopropanecarboxamide]
8 (≈ 19.2 µM)	4 (≈ 9.61 µM)	4 (≈ 9.61 µM)	CC(F)(F)C(=O)NC[C@H]1CN(c2ccc([C@H]3[C@@H]4C[S+]([O-])C[C@@H]43)c(F)c2)C(=O)O1 (stereo partly drawn) [Example 54, 2,2-difluoro-N-[((5S)-3-{3-fluoro-4-[exo-(1R,5S)-3-oxido-3-thiabicyclo[3.1.0]-6-yl]phenyl}-2-oxo-1,3-oxazolidin-5-yl)methyl]propanamide]
8 (≈ 18.5 µM)	2 (≈ 4.63 µM)	16 (≈ 37 µM)	CC(F)(F)C(=O)NC[C@H]1CN(c2ccc([C@H]3[C@@H]4CS(=O)(=O)C[C@@H]43)c(F)c2)C(=O)O1 [Example 55, 2,2-difluoro-N-[((5S)-3-{3-fluoro-4-[exo-(1R,5S)-3,3-dioxido-3-thiabicyclo[3.1.0]hex-6-yl]phenyl}-2-oxo-1,3-oxazolidin-5-yl)methyl]propanamide]
4 (≈ 9.84 µM)	2 (≈ 4.92 µM)	16 (≈ 39.4 µM)	O=C(NC[C@H]1CN(c2ccc([C@H]3[C@@H]4C[S+]([O-])C[C@@H]43)c(F)c2)C(=O)O1)C1CCC1 (stereo partly drawn) [Example 56, N-[((5S)-3-{3-fluoro-4-[exo-(1R,5S)-3-oxido-3-thiabicyclo[3.1.0]hex-6-yl]phenyl}-2-oxo-1,3-oxazolidin-5-yl)methyl]cyclobutanecarboxamide]
8 (≈ 18.9 µM)	2 (≈ 4.73 µM)	32 (≈ 75.7 µM)	O=C(NC[C@H]1CN(c2ccc([C@H]3[C@@H]4CS(=O)(=O)C[C@@H]43)c(F)c2)C(=O)O1)C1CCC1 [Example 57, N-[((5S)-3-{3-fluoro-4-[exo-(1R,5S)-3,3-dioxido-3-thiabicyclo[3.1.0]hex-6-yl]phenyl}-2-oxo-1,3-oxazolidin-5-yl)methyl]cyclobutanecarboxamide]
1 (≈ 2.51 µM)	1 (≈ 2.51 µM)	2 (≈ 5.02 µM)	CCC(=O)NC[C@H]1CN(c2cc(F)c([C@H]3[C@@H]4C[S+]([O-])C[C@@H]43)c(F)c2)C(=O)O1 (stereo partly drawn) [Example 58, N-[((5S)-3-{3,5-difluoro-4-[exo-(1R,5S)-3-oxido-3-thiabicyclo[3.1.0]hex-6-yl]phenyl}-2-oxo-1,3-oxazolidin-5-yl)methyl]propanamide]
1 (≈ 2.41 µM)	1 (≈ 2.41 µM)	4 (≈ 9.65 µM)	CCC(=O)NC[C@H]1CN(c2cc(F)c([C@H]3[C@@H]4CS(=O)(=O)C[C@@H]43)c(F)c2)C(=O)O1 [Example 59, N-[((5S)-3-{3,5-difluoro-4-[exo-(1R,5S)-3,3-dioxido-3-thiabicyclo[3.1.0]hex-6-yl]phenyl}-2-oxo-1,3-oxazolidin-5-yl)methyl]propanamide]
